Several values for one entry are separate records, joined by “and”; a condition that tells them apart may be missing. Equal entries are not always repeated.
Legend:
[1] = tested on: blood cells from 3 patients infected by the hepatitis C virus of genotype 1 and having an HLA of type HLA-A2+; conditions: ELISPOT, 48 hours, positive if more than 20 spots per well
Description: The ability of blood cells from 3 patients infected by the hepatitis C virus of genotype 1 and having an HLA of type HLA-A2+ to produce gamma-interferon cytokines and interleukin-10, in response to two peptides predicted by software developed by bioMerieux (Centre d'Immunologie de Pierre Fabre) to bind to the HLA-A2 molecule was tested.
The assay of these cytokines reflects the ability of the peptides to induce immune responses to cell mediation, either of type 1 (gamma interferon), or of type 2 (interleukin-10)
After 48 hours of incubation at 37° C., a period during which the cells specific to the peptides will locally produce cytokines which will bind to the specific antibodies, anti-gamma interferon or anti-interleukin-10 antibodies, alkaline phosphatase coupled to avidine and the alkaline phosphatase substrate (NBT/BCIP) were added.
The violet-blue spots, which represent each gamma-interferon or interleukin-10-producing cell were counted, using Zeiss's ELISPOT automated reader (KS Elispot) and only considered positive when the number of spots per well was greater than 20.

[2] = tested on: Mice transgenic for the molecule HLA.A2.1; assay: ELISPOT after immunization of transgenic mice with predicted epitopes; format: in vivo; conditions: three individual mice; two injections of epitope 60 μM + T-helper peptide in IFA; two weeks after last immunization
Description: Mice transgenic for the molecule HLA.A2.1 and devoid of murine class 1 molecules (Pascolo S., et al., 1997, J. Exp Med., 185: 2043-2051) were immunized with the FLL and ILA epitopes predicted as being class I epitopes restricted by the molecule HLA.A2.1.
In order to do this, the mice were immunized in the base of their tails with a peptide mixture containing one of the above epitopes (60 μM) and the T-helper peptide (Lone, Y. C. et al., (1998), J. Immunother. 21:283-294) (60 μM) emulsified in incomplete Freund's adjuvant (Sigma St Louis, Mo.). The mice received two injections with an interval of two weeks and the immune responses were analyzed two weeks after the last immunization as indicated in Example 1 (Elispot).

HLA-A2.1-transgenic mice = assay: CTL test after immunization with peptides/compositions/epitopes; format: in vivo; conditions: FIG. 10; 18 nmoles of D peptide versus 60 nmoles of ALY epitope, ALY epitope as target
Description: In order to do this, 2 sub-cutaneous injections were administered into the base of the tail of each mouse, with an interval of 15 days, of a mixture containing 18 nmoles of peptide of the invention and 18 nmoles of the HBV core helper peptide in incomplete Freund's adjuvant (IFA, Brinster et al., Hepatology 2001) or containing 60 nmoles of epitope of the invention and 60 nmoles of the helper peptide in IFA.
The control mice received only the helper peptide in IFA.
Fifteen days after the 2nd injection, the cell response was analyzed by isolating the spleen cells (splenocytes) of mice and a CTL test and an ELISPOT test were carried out as follows:
For the CTL test, these splenocytes were cultured in 24-well plates in the presence of 5 μM of the peptide or epitope of interest and 10 U of recombinant murine interleukin-2 (Brinster et al., Hepatology 2001) per ml in alpha minimum essential medium (αMEM) for 5 days. […] The specific cytotoxic activity of the effective cells was determined by measuring, after 4 hours of incubation with the target cells, the Cr^51 released following the lysis of the target cells using a γ-Cobra II (Packard, Rungis, France) counting device. The spontaneous and maximum release from wells containing either the medium alone, or the lysis buffer (HCl 1N) were determined. […]

Substance | production of gamma interferon [1] | production of interleukin-10 [1] | Number of spots/10^6 cells (gamma-interferon-producing cells) [2] | lysis effectiveness (HLA-A2.1-transgenic mice)
FLATCVNGV | little if any production | little if any production |  | 
LLGCIITSL | significant production of gamma interferon in 2 of the 3 patients | significant production |  | 
ILAGYAGAGV |  |  | 5 spots/10^6 cells and 2 spots/10^6 cells and 0 spots/10^6 cells | 
D peptide: D peptide of sequence SEQ ID NO: 176, in NS5b between positions 2573 and 2601 of the viral polyprotein |  |  |  | identical lysis effectiveness

Source: patent publication US8293528B2, “Peptide compositions and their use in particular in the preparation of pharmaceutical compositions active against the hepatitis C virus” (priority 2002, dated 2012)
